{
  "source": "patent EP0770606A1",
  "about": "“Cis-epoxide derivate useful as irreversible HIV protease inhibitor and process for its preparation” (LG Chemical Limited, priority 1995, dated 1997)",
  "key": {"[1]": {"system": "HIV-1", "assay": "Anti-viral activity: inhibition of HIV proliferation in H9 (reverse transcriptase activity) and Sup T1 (syncytium formation) cell lines", "format": "cell-based", "details": "concentration at which the proliferation of HIV is inhibited by 50%, H9 or Sup T1 cells, cell line not stated", "experimental": "1 x 10^5 cells of each of H9(ATCC HTB 176) and Sup T1 cell lines were added to the wells of a 24-well microtiter plate and the compound of the present invention was added thereto in various concentrations. 200 TCID50(200-fold of 50% tissue culture infection dose) of HIV-1 inoculum and rpmi-1640 medium(Sigma Chemical Co., U.S.A) were added successively to the wells and the plate was incubated at 37°C. In case of Sup T1, the number of syncytium formed was investigated after 3 to 9 days.\nIn the case of H9, three-quarters(3/4) of the culture medium was refreshed every 3 days. After 9 days, 6ml of the culture fluid was centrifuged at 1000rpm for 10 minutes. To 5ml of the resulting supernatant were added 2.5ml of 30% polyethylene glycol(PEG, M.W. 6000-8000) and 0.4M NaCl. The resulting solution was allowed to stand at 0°C overnight to precipitate virus particles. The solution was centrifuged at 2000rpm for 45 minutes, the supernatant was discarded therefrom and the precipitate was diluted with 20ml of a reverse transcriptase suspension buffer(50mM tris-HCl(Sigma), pH 7.5, 1mM dithiothreitol, 20% glycerol, 0.25M KCl and 0.25% Triton X-100). The resulting suspension was stored in an Effendorf tube at -70°C until use. A cycle of freezing the above virus suspension for 2 minutes in dry ice and thawing it at 37°C for 2 minutes was repeated three times and the resulting suspension was centrifuged at 4°C. The resulting supernatant was used in carrying out the reverse transcriptase assay.\n10µl of the above virus suspension was added to a solution prepared by mixing: 10µl of buffer solution(250mM tris-HCl, pH 7.5, 37.5mM MgCl2, 0.25% triton X-100), 1.2µl of 200mM dithiothreitol, 5µl of 10µM oligo(dT)-poly(A)(Boeringer Mannheim, 12-18 oligomer), 1µl(1µCi) of ^3H-TTP(thymidinetriphosphate) and 23.6µl of water; and the resulting mixture was kept at 37°C. […] The amount of radioactivity was counted using a liquid scintillation counter."}, "[2]": {"assay": "Cytotoxicity by trypan blue dye exclusion", "format": "cell-based", "details": "human, h9 or sup t1 cells; concentration at which 50% of the cells die; 0.1µM to 100µM tested; cell line not stated; read-out: CT50 (the source's name)", "experimental": "(§1) To determine the cytotoxicity of the compound of the present invention, 0.1µM to 100µM of the compound was added to H9 cell or Sup T1 cell and the mixture was cultured on a rpmi-1640 medium at 37°C. The medium was refreshed every 3 days and the extent of cell proliferation was observed using Hemacytometer according to the trypan blue dye exclusion technique which is well known in the art. CT50(i.e., the concentration at which 50% of the cells die) was determined."}, "[3]": {"target": "T1, HIV-1 protease (Human immunodeficiency virus type 1 group M subtype B, UniProt P04585)", "T1 construct": "adding 2.6nM of HIV-1 protease to the preincubation solution", "format": "biochemical", "details": "KINSIM/FITSIM analysis", "protocol": "To a buffer solution comprising 50mM sodium acetate, pH 5.5, 1mM dithiothreitol(DTT), 1mM ethylenediaminetetraacetate (EDTA), 0.75M ammonium sulfate and 0.1% NP40(NONIDET P-40; Sigma Chemical Co., U.S.A.), was added a pre-determined amount of the compound obtained in Example to prepare a preincubation solution having a known concentration of the compound. The inhibition reaction was initiated by adding 2.6nM of HIV-1 protease to the preincubation solution. 10µl samples of the reaction solution were taken at a given time interval and each sample was added to 80µl of assay solution containing 100µM of reaction substrate in the same buffer solution as above to assay for the residual enzyme activity. […] The reaction rate was determined by subjecting both the substrate before the reaction and the product after the reaction to HPLC separation and then measuring the amount of the product relative to the substrate, using the strong absorbance of (p-NO2)-Phe at 280nm. The decrease in the enzyme activity with time was measured for each sample and the natural logarithmic values(ln) of the data points in a given experiment were plotted against time to obtain a linear correlation line. kobs was then calculated from the slope of the line.\nThe inhibition constant was calculated according to the following equation: (1)/(kobs)=(1)/(kina)+(KI)/(kina)(1)/([I]) [formula] wherein: kobs is a rate constant representing the rate of decrease in enzyme activity in the presence of the inhibitor, kina is a rate constant representing the rate of the irreversible covalent bond formation between the enzyme and the inhibitor (in Michaelis-Menten complex), KI is an inhibition constant represented by the equilibrium constant for the formation of the Michaelis-Menten complex from an enzyme and an inhibitor, and [I] designates the inhibitor concentration.\nThe inhibition constants KI, the rate constant kina and the second order rate constant kina/KI were tabulated by inputting the value of [E]/([E]+[EI]+[EI'] [formula] ) into KINSIM/FITSIM program."}, "[4]": {"system": "H9 cell or Sup T1 cell", "assay": "Cytotoxicity by trypan blue dye exclusion", "format": "cell-based", "details": "human, h9 or sup t1 cells", "experimental": "as §1"}},
  "data": [
    {"molecule": "CC(C)c1nc(CN(C)C(=O)N[C@H](C(=O)N[C@@H](Cc2ccccc2)C[C@H](O)[C@H](Cc2ccccc2)NC(=O)OCc2cncs2)C(C)C)cs1", "note": "[ABI-538]", "values": [
      {"measurement": "IC50", "setting": "[1]", "result": 53, "unit": "nM"}
    ]},
    {"molecule": "CC(C)(C)NC(=O)[C@@H]1CN(Cc2cccnc2)CCN1C[C@@H](O)C[C@@H](Cc1ccccc1)C(=O)N[C@H]1c2ccccc2C[C@H]1O", "note": "[MK-639, reference compound]", "values": [
      {"measurement": "IC50", "setting": "[1]; Human immunodeficiency virus 1", "result": 10, "unit": "nM"},
      {"measurement": "CC50", "setting": "[2]", "result": 10000, "unit": "nM"}
    ]},
    {"molecule": "[(5S)-[(N-isopropyloxycarbonyl)-β-methanesulfonyl-L-valinyl]amino]-(4R, 3S)-epoxy-6-phenyl-1-hexanoyl]-[(2S)-(1-phenyl-3-methyl-1-oxo)butylamino]amide [compound of the present invention]", "values": [
      {"measurement": "Ki", "setting": "[3]; inhibition constant, 2.6nM HIV-1 protease, pH 5.5", "result": 12, "unit": "nM"},
      {"measurement": "kina", "setting": "[3]; rate constant of irreversible covalent bond formation between enzyme and inhibitor", "result": 3.2, "unit": "min⁻¹"},
      {"measurement": "kina/KI", "setting": "[3]; second order rate constant", "result": "2.7 x 10^7 min^-1M^-1"},
      {"measurement": "IC50", "setting": "[1]", "result": 15, "unit": "nM"},
      {"measurement": "CC50", "setting": "[4]", "result": 10000, "unit": "nM"}
    ]}
  ]
}
